Experimental data reported in the NIST ThermoML archive (doi:10.1021/je900387e).

Test: xn = mol fraction of the nth substance listed
Conditions: Liquid, Pycnometric method

CCCCBr [1-bromobutane] + O=C=O
Conditions | mass density [kg/m3]
332.4 K, 10370 kPa, x1 = 0.1495 | 915
332.4 K, 10440 kPa, x1 = 0.0461 | 587
332.4 K, 10440 kPa, x1 = 0.0683 | 677
332.4 K, 10510 kPa, x1 = 0.0989 | 783
332.4 K, 10520 kPa, x1 = 0.0461 | 595
332.4 K, 10560 kPa, x1 = 0.1495 | 918
332.4 K, 10570 kPa, x1 = 0.0683 | 686
332.4 K, 10590 kPa, x1 = 0.0461 | 603
332.4 K, 10650 kPa, x1 = 0.0989 | 788
332.4 K, 10710 kPa, x1 = 0.0683 | 694
332.4 K, 10720 kPa, x1 = 0.0461 | 615
332.4 K, 10750 kPa, x1 = 0.1495 | 921
332.4 K, 10820 kPa, x1 = 0.0989 | 793
332.4 K, 10870 kPa, x1 = 0.0683 | 703
332.4 K, 10880 kPa, x1 = 0.0461 | 627
332.4 K, 10940 kPa, x1 = 0.1495 | 924
332.4 K, 10990 kPa, x1 = 0.0989 | 798
332.4 K, 11050 kPa, x1 = 0.0683 | 712
332.4 K, 11070 kPa, x1 = 0.0461 | 640
332.4 K, 11120 kPa, x1 = 0.1495 | 927
332.4 K, 11180 kPa, x1 = 0.0989 | 804
332.4 K, 11240 kPa, x1 = 0.0683 | 721
332.4 K, 11270 kPa, x1 = 0.0461 | 654
332.4 K, 11310 kPa, x1 = 0.1495 | 930
332.4 K, 11390 kPa, x1 = 0.0989 | 808
332.4 K, 11460 kPa, x1 = 0.0683 | 730
332.4 K, 11510 kPa, x1 = 0.0461 | 668
332.4 K, 11530 kPa, x1 = 0.1495 | 933
332.4 K, 11600 kPa, x1 = 0.0989 | 814
332.4 K, 11720 kPa, x1 = 0.0683 | 739
332.4 K, 11730 kPa, x1 = 0.1495 | 936
332.4 K, 11780 kPa, x1 = 0.0461 | 683
332.4 K, 11830 kPa, x1 = 0.0989 | 819
332.4 K, 11970 kPa, x1 = 0.1495 | 939
332.4 K, 11980 kPa, x1 = 0.0461 | 689
332.4 K, 12000 kPa, x1 = 0.0683 | 749
332.4 K, 12060 kPa, x1 = 0.0989 | 825
332.4 K, 12190 kPa, x1 = 0.1495 | 942
332.4 K, 12220 kPa, x1 = 0.0461 | 703
332.4 K, 12330 kPa, x1 = 0.0461 | 708
332.4 K, 12330 kPa, x1 = 0.0683 | 759
332.4 K, 12330 kPa, x1 = 0.0989 | 830
332.4 K, 12450 kPa, x1 = 0.1495 | 945
332.4 K, 12620 kPa, x1 = 0.0989 | 836
332.4 K, 12650 kPa, x1 = 0.1495 | 948
332.4 K, 12670 kPa, x1 = 0.0683 | 770
332.4 K, 12920 kPa, x1 = 0.1495 | 951
332.4 K, 12930 kPa, x1 = 0.0989 | 842
332.4 K, 13080 kPa, x1 = 0.0683 | 780
332.4 K, 13170 kPa, x1 = 0.1495 | 954
332.4 K, 13250 kPa, x1 = 0.0989 | 847
332.4 K, 13470 kPa, x1 = 0.1495 | 958
332.4 K, 13540 kPa, x1 = 0.0683 | 791
332.4 K, 13600 kPa, x1 = 0.0989 | 853
332.4 K, 13750 kPa, x1 = 0.1495 | 961
332.4 K, 13980 kPa, x1 = 0.0989 | 859
332.4 K, 14040 kPa, x1 = 0.1495 | 964
332.4 K, 14050 kPa, x1 = 0.0683 | 802
332.4 K, 14320 kPa, x1 = 0.1495 | 967
332.4 K, 14360 kPa, x1 = 0.0989 | 865
332.4 K, 14630 kPa, x1 = 0.1495 | 970
332.4 K, 14640 kPa, x1 = 0.0683 | 814
332.4 K, 14810 kPa, x1 = 0.0989 | 871
332.4 K, 14910 kPa, x1 = 0.1495 | 973
332.4 K, 14960 kPa, x1 = 0.0683 | 820
332.4 K, 15090 kPa, x1 = 0.1495 | 975
335.9 K, 10180 kPa, x1 = 0.0683 | 589
335.9 K, 10200 kPa, x1 = 0.0683 | 591
335.9 K, 10210 kPa, x1 = 0.0683 | 593
335.9 K, 10240 kPa, x1 = 0.0683 | 597
335.9 K, 10250 kPa, x1 = 0.0683 | 601
335.9 K, 10310 kPa, x1 = 0.0683 | 607
335.9 K, 10380 kPa, x1 = 0.0683 | 614
335.9 K, 10450 kPa, x1 = 0.0683 | 620
335.9 K, 10540 kPa, x1 = 0.0683 | 627
335.9 K, 10610 kPa, x1 = 0.0683 | 634
335.9 K, 10700 kPa, x1 = 0.0683 | 641
335.9 K, 10790 kPa, x1 = 0.0683 | 649
335.9 K, 10940 kPa, x1 = 0.0683 | 660
335.9 K, 11140 kPa, x1 = 0.0683 | 672
335.9 K, 11350 kPa, x1 = 0.0683 | 684
335.9 K, 11590 kPa, x1 = 0.0683 | 697
335.9 K, 11870 kPa, x1 = 0.0683 | 710
335.9 K, 12340 kPa, x1 = 0.0683 | 728
335.9 K, 12930 kPa, x1 = 0.0683 | 747
335.9 K, 13690 kPa, x1 = 0.0683 | 767
335.9 K, 14350 kPa, x1 = 0.0683 | 783
335.9 K, 14890 kPa, x1 = 0.0683 | 794
335.9 K, 14990 kPa, x1 = 0.0683 | 797
335.9 K, 15110 kPa, x1 = 0.0683 | 800
337.4 K, 10000 kPa, x1 = 0.1495 | 872
337.4 K, 10190 kPa, x1 = 0.1495 | 876
337.4 K, 10210 kPa, x1 = 0.0461 | 479
337.4 K, 10240 kPa, x1 = 0.0989 | 714
337.4 K, 10260 kPa, x1 = 0.0461 | 482
337.4 K, 10290 kPa, x1 = 0.0989 | 717
337.4 K, 10310 kPa, x1 = 0.1495 | 879
337.4 K, 10340 kPa, x1 = 0.0461 | 492
337.4 K, 10360 kPa, x1 = 0.0989 | 722
337.4 K, 10430 kPa, x1 = 0.0461 | 502
337.4 K, 10430 kPa, x1 = 0.1495 | 881
337.4 K, 10440 kPa, x1 = 0.0989 | 726
337.4 K, 10520 kPa, x1 = 0.0989 | 730
337.4 K, 10540 kPa, x1 = 0.0461 | 513
337.4 K, 10580 kPa, x1 = 0.1495 | 884
337.4 K, 10590 kPa, x1 = 0.0989 | 735
337.4 K, 10660 kPa, x1 = 0.0461 | 524
337.4 K, 10690 kPa, x1 = 0.0989 | 739
337.4 K, 10690 kPa, x1 = 0.1495 | 887
337.4 K, 10790 kPa, x1 = 0.0461 | 537
337.4 K, 10790 kPa, x1 = 0.0989 | 743
337.4 K, 10810 kPa, x1 = 0.1495 | 889
337.4 K, 10890 kPa, x1 = 0.0989 | 748
337.4 K, 10910 kPa, x1 = 0.0461 | 549
337.4 K, 10970 kPa, x1 = 0.1495 | 893
337.4 K, 10990 kPa, x1 = 0.0989 | 752
337.4 K, 11060 kPa, x1 = 0.0461 | 563
337.4 K, 11100 kPa, x1 = 0.1495 | 895
337.4 K, 11130 kPa, x1 = 0.0989 | 757
337.4 K, 11230 kPa, x1 = 0.0461 | 577
337.4 K, 11240 kPa, x1 = 0.0989 | 762
337.4 K, 11250 kPa, x1 = 0.1495 | 898
337.4 K, 11370 kPa, x1 = 0.0461 | 588
337.4 K, 11370 kPa, x1 = 0.0989 | 766
337.4 K, 11420 kPa, x1 = 0.1495 | 901
337.4 K, 11510 kPa, x1 = 0.0461 | 599
337.4 K, 11520 kPa, x1 = 0.0989 | 771
337.4 K, 11580 kPa, x1 = 0.1495 | 904
337.4 K, 11680 kPa, x1 = 0.0461 | 611
337.4 K, 11680 kPa, x1 = 0.0989 | 776
337.4 K, 11740 kPa, x1 = 0.1495 | 906
337.4 K, 11830 kPa, x1 = 0.0989 | 781
337.4 K, 11860 kPa, x1 = 0.0461 | 623
337.4 K, 11920 kPa, x1 = 0.1495 | 909
337.4 K, 12010 kPa, x1 = 0.0989 | 786
337.4 K, 12070 kPa, x1 = 0.1495 | 912
337.4 K, 12080 kPa, x1 = 0.0461 | 636
337.4 K, 12200 kPa, x1 = 0.0989 | 791
337.4 K, 12280 kPa, x1 = 0.1495 | 915
337.4 K, 12320 kPa, x1 = 0.0461 | 649
337.4 K, 12390 kPa, x1 = 0.0989 | 796
337.4 K, 12490 kPa, x1 = 0.1495 | 918
337.4 K, 12580 kPa, x1 = 0.0461 | 663
337.4 K, 12620 kPa, x1 = 0.0989 | 801
337.4 K, 12680 kPa, x1 = 0.1495 | 921
337.4 K, 12850 kPa, x1 = 0.0989 | 806
337.4 K, 12890 kPa, x1 = 0.1495 | 924
337.4 K, 12910 kPa, x1 = 0.0461 | 674
337.4 K, 13110 kPa, x1 = 0.0989 | 812
337.4 K, 13130 kPa, x1 = 0.1495 | 927
337.4 K, 13260 kPa, x1 = 0.0461 | 693
337.4 K, 13320 kPa, x1 = 0.1495 | 930
337.4 K, 13360 kPa, x1 = 0.0989 | 817
337.4 K, 13530 kPa, x1 = 0.0461 | 703
337.4 K, 13550 kPa, x1 = 0.1495 | 933
337.4 K, 13650 kPa, x1 = 0.0989 | 822
337.4 K, 13770 kPa, x1 = 0.1495 | 936
337.4 K, 13920 kPa, x1 = 0.0989 | 828
337.4 K, 14020 kPa, x1 = 0.1495 | 939
337.4 K, 14220 kPa, x1 = 0.0989 | 833
337.4 K, 14300 kPa, x1 = 0.1495 | 942
337.4 K, 14530 kPa, x1 = 0.1495 | 945
337.4 K, 14570 kPa, x1 = 0.0989 | 839
337.4 K, 14750 kPa, x1 = 0.1495 | 948
337.4 K, 14880 kPa, x1 = 0.0989 | 844
337.4 K, 15050 kPa, x1 = 0.1495 | 951
337.4 K, 15220 kPa, x1 = 0.0989 | 850
337.9 K, 9120 kPa, x1 = 0.0245 | 280
337.9 K, 9150 kPa, x1 = 0.0245 | 283
337.9 K, 9220 kPa, x1 = 0.0245 | 288
337.9 K, 9290 kPa, x1 = 0.0245 | 292
337.9 K, 9370 kPa, x1 = 0.0245 | 297
337.9 K, 9440 kPa, x1 = 0.0245 | 303
337.9 K, 9520 kPa, x1 = 0.0245 | 308
337.9 K, 9600 kPa, x1 = 0.0245 | 314
337.9 K, 9680 kPa, x1 = 0.0245 | 320
337.9 K, 9750 kPa, x1 = 0.0245 | 325
337.9 K, 9830 kPa, x1 = 0.0245 | 331
337.9 K, 9920 kPa, x1 = 0.0245 | 338
337.9 K, 10000 kPa, x1 = 0.0245 | 345
337.9 K, 10080 kPa, x1 = 0.0245 | 352
337.9 K, 10180 kPa, x1 = 0.0245 | 359
337.9 K, 10270 kPa, x1 = 0.0245 | 367
337.9 K, 10360 kPa, x1 = 0.0245 | 375
337.9 K, 10450 kPa, x1 = 0.0245 | 383
337.9 K, 10560 kPa, x1 = 0.0245 | 391
337.9 K, 10620 kPa, x1 = 0.0245 | 397
337.9 K, 10630 kPa, x1 = 0.0245 | 399
